# Experimental data reported in patent US10130677B2, “Antimicrobial peptide and uses thereof” (priority 2013, dated 2018).
# Like-named read-outs stand apart in the source and are kept apart here.
# Legend:
# [1] = test system: LTA (S. aureus)-induced IL-8 production; test: LTA neutralization in whole human blood; assay type: cell-based; conditions: LTA-induced IL-8; blood from one donor
# Source text: The term “anti-inflammatory activity” of a polypeptide as used herein refers to inhibiting, reducing or preventing an inflammatory response in a subject that has been infected by microbes, e.g. bacteria, viruses, fungi, and/or parasites. Anti-inflammatory activity of polypeptides of the invention is achieved by inhibiting, reducing or preventing the release of pro-inflammatory microbial compounds, such as lipoteichoic acid (LTA), peptidoglycan (PG) and/or lipopolysaccharides (LPS). Anti-inflammatory activity can be measured by methods known in the art. Examples of such method are a LPS neutralization assay and a LTA neutralization assay as described in the Examples of this application. In such method, a polypeptide of the invention is mixed with a fixed concentration of LPS or LTA, such as 500 ng/ml LPS or 2 mg/ml LTA, and incubated for 30 min. Thereafter, these mixtures were added to diluted fresh human whole blood and 20 hours thereafter the level of cytokines (e.g. 1L-8 for LTA and 1L-12p40 for LPS) in the blood sample are measured by ELISA.
# Peptides were pre-incubated with 500 ng/ml LPS (E. coli 054) or 2 mg/ml LTA (S. aureus, endotoxin-free) or 1×10^9 CFU/ml of UV-killed S. aureus JAR060131 for 30 min at 37° C. Diluted whole human blood was stimulated with the peptide-LPS/LTA/S. aureus mixtures for 20 hours at 37° C. IL-12p40 and IL-8 levels in supernatants were determined using ELISA.
# [2] = test system: methicillin resistant S. aureus (MRSA) LUH14616; assay type: cell-based, Staphylococcus aureus
# Experimental: Peptides were incubated with 1×10^6 CFU/ml of a mid-logarithmic culture of S. aureus JAR060131, methicillin resistant S. aureus (MRSA) LUH14616, Staphylococcus epidermidis RP62a, and Pseudomonas aeruginosa PAO1 in PBS without or with addition of pooled human plasma (Sanquin, Amsterdam, the Netherlands) at a final concentration of 50%. Antimicrobial activity is expressed as the 99.9% lethal concentration (LC99.9), i.e., the lowest peptide concentration which killed ≥99.9% of bacteria after 2 hours of incubation at 37° C. under shaking conditions.
# bacteria = assay type: cell-based
# Source text: The currently known AMPs, including OP-145, still have a few drawbacks. For instance, various bacteria, such as P. aeruginosa, E. faecalis, Proteus mirabilis, Streptococcus pyogenes and S. aureus all secrete proteases that degrade several antimicrobial peptides, such as the cathelicidin LL-37. Thus, protease resistant antimicrobial peptides are advantageous from a therapeutical standpoint. Furthermore, due to potential lytic effect as well as other properties of AMPs against bacterial but also mammalian membranes, one of the challenges in designing new peptides relies on developing AMPs with high specificity against microorganisms such as bacterial or fungal cells as compared to cellular membranes of the infected patient, i.e., a high therapeutic index (minimal hemolytic concentration/minimal antimicrobial activity; MHC/MEC). Another important disadvantage of known AMPs, including OP-145, is that its activity is strongly affected by the presence of plasma components. For instance, for OP-145 the LC99.9 (the lowest peptide concentration which kills ≥99.9% of bacteria) in PBS of 1.6 μM, whereas the LC99.9 in PBS/plasma (1:1) is about 200 μM. This is in particular a disadvantage for systemically administered AMPs.
substance,measurement,setting,value
"Ac-IGKEFKRIVERIKRFLRELVRPLR-NH2 [OP-145, JIGKEFKRIVERIKRFLRELVRPLRB, reference compound]",IC50,[1],0.781 µM
same,LC99.9,"[2]; 50% plasma, mid-logarithmic culture, median (Table 3)",204.8 µM
same,LC99.9,[2]; methicillin resistant LUH14616,1.6 µM
same,LC99.9,bacteria; PBS,1.6 µM
same,LC99.9,bacteria; PBS/plasma (1:1),about 200 μM
